Measurements taken from US7709645B2, “Pyrrolo-pyridine kinase modulators” (SGX Pharmaceuticals, Inc., priority 2004, dated 2010).

The compounds below were run against T1, Autophosphorylated AurA kinase (Homo sapiens, UniProt O14965) (assay: AurA Bioassay (luminescence-based enzyme assay, Kinase-Glo)). Conditions: 10 μM ATP.
T1 construct: made in house; host or cells: Sf9 insect cells
T1 sequence (O14965 1-403): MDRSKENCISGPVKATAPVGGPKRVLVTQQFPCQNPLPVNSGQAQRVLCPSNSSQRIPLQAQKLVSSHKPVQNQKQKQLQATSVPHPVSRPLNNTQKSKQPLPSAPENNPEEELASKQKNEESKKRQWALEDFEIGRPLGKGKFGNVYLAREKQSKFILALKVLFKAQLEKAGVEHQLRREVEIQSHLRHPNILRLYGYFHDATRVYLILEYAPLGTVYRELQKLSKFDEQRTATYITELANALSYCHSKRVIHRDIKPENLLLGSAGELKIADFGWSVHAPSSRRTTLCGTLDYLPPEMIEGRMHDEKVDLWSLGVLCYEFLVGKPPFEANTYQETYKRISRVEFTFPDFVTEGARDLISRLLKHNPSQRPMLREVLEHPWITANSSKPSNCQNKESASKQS
Type: biochemical
Excerpt: In addition to the c-Abl PK/LDH coupled assay (above), homogeneous luminescence-based inhibitor screening assays were developed for c-Abl, MET, AurA, and PDK1 kinases (among others). Each of these assays made use of an ATP depletion assay (Kinase-Glo™, Promega Corporation, Madison, Wis.) to quantitate kinase activity. The Kinase-Glo™ format uses a thermostable luciferase to generate luminescent signal from ATP remaining in solution following the kinase reaction. The luminescent signal is inversely correlated with the amount of kinase activity.
Materials: Kemptide peptide substrate=LRRASLG (SEQ ID NO:2) (Biopeptide, San Diego, Calif.), ATP (Sigma Cat#A-3377, FW=551), HEPES buffer, pH 7.5, 10% Brij 35 (Calbiochem Cat#203728), MgCl2, Staurosporine (Streptomyces sp. Sigma Cat#85660-1MG), white Costar 384-well flat bottom plate (VWR Cat#29444-088), Autophosphorylated AurA kinase (see below), Kinase-Glo™ (Promega Cat#V6712).
Stock Solutions: 10 mM Kemptide peptide (7.72 mg/ml in water), stored at −20° C.; 100 mM HEPES buffer+0.015% Brij 35, pH 7.5 (5 ml 1M HEPES stock+75 μL 10% Brij 35+45 ml miliQH2O); 10 mM ATP (5.51 mg/ml in dH2O) stored at −20° C. (diluted 50 μl into total of 10 ml miliQH2O daily=50 μM ATP working stock); 100 mM MgCl2; […] Staurosporine, 2× Kinase-Glo™ reagent (made fresh or stored at −20° C.).
AurA Autophosphorylation Reaction: ATP and MgCl2 were added to 1-5 mg/ml AurA at final concentrations of 10 mM and 100 mM, respectively. The autophosphorylation reaction was incubated at 21° C. for 2-3 h. The reaction was stopped by the addition of EDTA to a final concentration of 50 mM, and samples were flash frozen with liquid N2 and stored at −80° C.
Standard Assay Setup for 384-well format (20 μl kinase reaction, 40 μl detection reaction): 10 mM MgCl2; 0.2 mM Kemptide peptide; […] test compound (in DMSO); 0.3 μg/ml Autophosphorylated AurA kinase; 10 μM ATP; 100 mM HEPES+0.015% Brij buffer. Positive controls contained DMSO with no test compound. Negative controls contained 5 μM staurosporine. The kinase reactions were initiated at time t=0 by the addition of ATP. Kinase reactions were incubated at 21° C. for 45 min, then 20 μl of Kinase-Glo™ reagent were added to each well to quench the kinase reaction and initiate the luminescence reaction. After a 20 min incubation at 21° C., the luminescence was detected in a plate-reading luminometer.
The Sf9 insect cell pellets (˜18 g) produced from 6 L of cultured cells expressing human Aurora-2 were resuspended in 50 mM Na Phosphate pH 8.0, 500 mM NaCl, 10% glycerol, 0.2% n-octyl-β-D-glucopyranoside (BOG) and 3 mM β-Mercaptoethanol (BME). One tablet of Roche Complete, EDTA-free protease inhibitor cocktail (Cat# 1873580) and 85 units Benzonase (Novagen Cat#70746-3)) were added per 1 L of original culture. Pellets were resuspended in approximately 50 ml per 1 L of original culture and were then sonicated on ice with two 30-45 sec bursts (100% duty cycle). Debris was removed by centrifugation and the supernatant was passed through a 0.8 μm syringe filter before being loaded onto a 5 ml Ni^2+ HiTrap column (Pharmacia). The column was washed with 6 column volumes of 50 mM Na Phosphate pH 8.0, 500 mM NaCl, 10% glycerol, 3 mM BME. The protein was eluted using a linear gradient of the same buffer containing 500 mM Imidazole. The eluant (24 ml) was cleaved overnight at 4° C. in a buffer containing 50 mM Na Phosphate pH 8.0, 500 mM NaCl, 10% glycerol, 3 mM BME and 10,000 units of TEV (Invitrogen Cat# 10127-017). […]

| IC50 [µM] | SMILES |
| --- | --- |
| 0.5 to 5 | CNC(=O)c1cncc(-c2cnc3[nH]cc(-c4ccccc4OC)c3c2)c1 [AE1] |
| 0.5 to 5 | COc1ccccc1-c1c[nH]c2ncc(-c3ccc(S(N)(=O)=O)s3)cc12 [AE11] |
| 0.5 to 5 | COc1ccccc1-c1c[nH]c2ncc(-c3cccc(S(C)(=O)=O)c3)cc12 [AE13] |
| 0.5 to 5 | COc1ccccc1-c1c[nH]c2ncc(-c3ccc[nH]3)cc12 [AE67] |
| 0.5 to 5 | COCCOc1ccc(-c2cnc3[nH]cc(-c4ccccc4OC)c3c2)cc1OCCOC [AE68] |

What follows are compounds tested on Ba/F3-T315I cells (assay: Ba/F3-T315I XTT Assay (cell survival)). Conditions: 72 hours.
Type: cell-based
Procedure: MV4-11 and THP cells were maintained in Iscove's Modified Dulbecco's Medium supplemented with 10% fetal bovine serum (FBS) and penicillin/streptomycin, Ba/F3 cells were maintained in RPMI 1640 supplemented with 10% FBS, penicillin/streptomycin and 5 ng/ml recombinant mouse IL-3.
Compounds were tested in the following assays in duplicate.
96-well XTT assay: Cells (e.g. BaF3 315I, M351I, or E255K cells) were grown in growth media containing various concentrations of compounds (duplicates) on a 96-well plate for 72 hours at 37° C. The starting cell number was 5000-8000 cells per well and volume was 120 μl. At the end of the 72-hour incubation, 40 μl of XTT labeling mixture (50:1 solution of sodium 3′-[1-(phenylamino-carbonyl)-3,4-tetrazolium]-bis(4-methoxy-6-nitro) benzene sulfonic acid hydrate and Electron-coupling reagent: PMS (N-methyl dibenzopyrazine methyl sulfate) were added to each well of the plate. After an additional 2-6 hours of incubation at 37° C., the absorbance reading at 405 nm with background correction at 650 nm was measured with a spectrophotometer.

| SMILES | IC50 [µM] |
| --- | --- |
| COc1ccccc1-c1c[nH]c2ncc(-c3ccc4[nH]cc(CC(=O)O)c4c3)cc12 [AE10] | < 0.1 |
